Source: ChEMBL document CHEMBL3885881, “DrugMatrix”
Where “and” joins values, the source holds several entries; their conditions need not be identical. Equal values may be shown once.

Species on record: Rattus norvegicus
Assay: DrugMatrix - Regimen: Daily Repeat
Type: toxicity, organism-based, Sprague-Dawley
Set-up: regimen Daily Repeat, gender Male, age 6-8 weeks
Conditions: in vivo, vehicle 100 % SALINE; for ALANINE AMINOTRANSFERASE / ALBUMIN / ALKALINE PHOSPHATASE / ASPARTATE AMINOTRANSFERASE / BLOOD UREA NITROGEN / CARBON DIOXIDE / CHLORIDE / CHOLESTEROL / CREATINE PHOSPHOKINASE / CREATININE / GLUCOSE / LACTATE DEHYDROGENASE / LIPASE / PHOSPHORUS / POTASSIUM / SODIUM / TOTAL BILIRUBIN / TOTAL PROTEIN / URIC ACID: tissue Plasma
[1] = ip, 2 mg/kg, 120 h, tissue Blood, route intraperitoneal, dose level High, time 5 day
[2] = ip, 2 mg/kg, 120 h, route intraperitoneal, dose level High, time 5 day
[3] = ip, 2 mg/kg, […], tissue Blood, route intraperitoneal, dose level High, time 14 day
[4] = ip, 2 mg/kg, […], tissue Blood, route intraperitoneal, dose level High, time 28 day
[5] = ip, 2 mg/kg, […], route intraperitoneal, dose level High, time 14 day
[6] = ip, 2 mg/kg, […], route intraperitoneal, dose level High, time 28 day
[7] = po, 0 mg/kg, 72 h, tissue Blood, route oral GAVAGE, dose level Control, time 3 day

## LEAD (II) ACETATE
[1]
  BASOPHIL: 0.92% and 0.35%
  EOSINOPHIL: 1.12% and 0.5%
  ERYTHROCYTE COUNT: 7.54 x10E6/uL and 7.26 x10E6/uL
  HEMATOCRIT: 45.88% and 47.9%
  HEMOGLOBIN: 15 G/DL and 15.17 G/DL
  LEUKOCYTE COUNT: 13.21 x10E3/uL and 9.67 x10E3/uL
  LYMPHOCYTE: 76.12% and 82.6%
  MEAN CORPUSCULAR HEMOGLOBIN: 20.9 pg
  MEAN CORPUSCULAR HEMOGLOBIN CONCENTRATION: 32.66 G/DL and 31.67 G/DL
  MEAN CORPUSCULAR VOLUME: 66 fL
  MONOCYTE: 1.94% and 1.57%
  NEUTROPHIL: 19.32% and 13.95%
  PLATELET COUNT: 1605.4 x10E3/uL and 1679.25 x10E3/uL
[2]
  ALANINE AMINOTRANSFERASE: 30.6 u/L and 16 u/L
  ALBUMIN: 3.32 G/DL and 4.1 G/DL
  ALKALINE PHOSPHATASE: 221 u/L and 290.75 u/L
  ASPARTATE AMINOTRANSFERASE: 83.2 u/L and 78.25 u/L
  BLOOD UREA NITROGEN: 13.8 mg/dL and 16.75 mg/dL
  CARBON DIOXIDE: 24 mmol/L
  CHLORIDE: 109.2 MEQ/L and 108.75 MEQ/L
  CHOLESTEROL: 57 mg/dL and 58.25 mg/dL
  CREATINE PHOSPHOKINASE: 338.6 u/L and 224.25 u/L
  CREATININE: 0.54 mg/dL and 0.4 mg/dL
  GLUCOSE: 117.4 mg/dL and 114.75 mg/dL
  LACTATE DEHYDROGENASE: 76.2 u/L
  LIPASE: 36 u/L and 14.25 u/L
  PHOSPHORUS: 10.02 mg/dL and 13.3 mg/dL
  POTASSIUM: 6.38 MEQ/L and 6.15 MEQ/L
  SODIUM: 151.2 MEQ/L and 152.25 MEQ/L
  TOTAL BILIRUBIN: 0.16 mg/dL and 0.3 mg/dL
  TOTAL PROTEIN: 5.8 G/DL and 6.3 G/DL
  URIC ACID: 1.08 mg/dL and 2.1 mg/dL
[3]
  ABSOLUTE BASOPHIL: 88 cells/µL
  ABSOLUTE EOSINOPHIL: 74 cells/µL
  ABSOLUTE LYMPHOCYTE: 8320 cells/µL
  ABSOLUTE MONOCYTE: 390 cells/µL
  ABSOLUTE SEGMENTED NEUTROPHIL: 3420 cells/µL
  HEMOGLOBIN: 14.2 G/DL
  MEAN CORPUSCULAR VOLUME: 59.1 fL
[4]
  ABSOLUTE BASOPHIL: 93 cells/µL
  ABSOLUTE EOSINOPHIL: 130 cells/µL
  ABSOLUTE LYMPHOCYTE: 9520 cells/µL
  ABSOLUTE MONOCYTE: 320 cells/µL
  ABSOLUTE SEGMENTED NEUTROPHIL: 2680 cells/µL
  BASOPHIL: 0.79%
  EOSINOPHIL: 1.01%
  ERYTHROCYTE COUNT: 8.38 x10E6/uL
  HEMATOCRIT: 46.51%
  HEMOGLOBIN: 14.88 G/DL
  LEUKOCYTE COUNT: 12.81 x10E3/uL
  LYMPHOCYTE: 74.22%
  MEAN CORPUSCULAR HEMOGLOBIN: 17.76 pg
  MEAN CORPUSCULAR HEMOGLOBIN CONCENTRATION: 32.02 G/DL
  MEAN CORPUSCULAR VOLUME: 55.46 fL
  MONOCYTE: 2.51%
  NEUTROPHIL: 20.93%
  PLATELET COUNT: 1429.8 x10E3/uL
[5]
  CARBON DIOXIDE: 26 mmol/L
  TOTAL PROTEIN: 5.9 G/DL
[6]
  ALANINE AMINOTRANSFERASE: 25.8 u/L
  ALBUMIN: 3.52 G/DL
  ALKALINE PHOSPHATASE: 146.4 u/L
  ASPARTATE AMINOTRANSFERASE: 80.7 u/L
  BLOOD UREA NITROGEN: 13.3 mg/dL
  CHLORIDE: 109.1 MEQ/L
  CHOLESTEROL: 54 mg/dL
  CREATINE PHOSPHOKINASE: 159.1 u/L
  CREATININE: 0.58 mg/dL
  GLUCOSE: 112.6 mg/dL
  LACTATE DEHYDROGENASE: 73.7 u/L
  LIPASE: 26.7 u/L
  PHOSPHORUS: 9.13 mg/dL
  POTASSIUM: 6.27 MEQ/L
  SODIUM: 150.5 MEQ/L
  TOTAL BILIRUBIN: 0.21 mg/dL
  TOTAL PROTEIN: 6.39 G/DL
  URIC ACID: 1.41 mg/dL
[7]
  ABSOLUTE BASOPHIL: 0 CELLS/uL
  ABSOLUTE EOSINOPHIL: 37 CELLS/uL
  ABSOLUTE LYMPHOCYTE: 12359.33 CELLS/uL
  ABSOLUTE MONOCYTE: 122.67 CELLS/uL
  ABSOLUTE SEGMENTED NEUTROPHIL: 847.67 CELLS/uL
  BASOPHIL: 0%
  EOSINOPHIL: 0.33%
  ERYTHROCYTE COUNT: 5.75 x10E6/uL
  HEMATOCRIT: 36.08%
  LEUKOCYTE COUNT: 13.37 x10E3/uL
  MEAN CORPUSCULAR HEMOGLOBIN CONCENTRATION: 38.98 G/DL
  MONOCYTE: 1%
  NEUTROPHIL: 6.17%
  NUCLEATED RED BLOOD CELLS: 0.17 /100WBC
  PLATELET COUNT: 1202.17 x10E3/uL
